For one experiment, the target named is T1, XOC_4190ΔG.
T1 construct: gene XOC_4190

A further experiment has as its target T2, (UniProt G7TDB2).
T2 construct: gene XOC_2102
Description: biochemical.

For the next experiment, the target named is T3, (UniProt G7TKC9).
T3 construct: gene XOC_4190
Description: biochemical.

Each structure is given as a SMILES string.

For one compound, Kd results are on record in PMC4823724 (Scientific Reports, 2016).

T2 sequence (G7TDB2 1-689): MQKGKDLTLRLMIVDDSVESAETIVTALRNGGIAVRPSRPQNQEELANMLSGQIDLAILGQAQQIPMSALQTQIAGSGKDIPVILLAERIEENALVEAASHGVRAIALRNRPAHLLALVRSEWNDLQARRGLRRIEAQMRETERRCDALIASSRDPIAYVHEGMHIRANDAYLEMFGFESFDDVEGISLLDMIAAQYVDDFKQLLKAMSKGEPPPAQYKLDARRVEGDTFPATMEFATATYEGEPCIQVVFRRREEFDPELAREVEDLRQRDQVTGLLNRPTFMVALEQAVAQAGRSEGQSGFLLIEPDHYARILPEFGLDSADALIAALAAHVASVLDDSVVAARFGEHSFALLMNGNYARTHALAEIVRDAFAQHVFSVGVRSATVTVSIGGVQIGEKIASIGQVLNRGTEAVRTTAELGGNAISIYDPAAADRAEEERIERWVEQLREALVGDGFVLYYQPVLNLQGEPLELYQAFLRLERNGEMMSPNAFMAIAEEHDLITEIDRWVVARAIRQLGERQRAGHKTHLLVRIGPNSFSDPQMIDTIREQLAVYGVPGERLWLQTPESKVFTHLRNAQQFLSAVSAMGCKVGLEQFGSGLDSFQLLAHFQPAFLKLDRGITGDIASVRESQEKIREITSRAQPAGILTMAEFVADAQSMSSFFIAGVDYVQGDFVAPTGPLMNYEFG
T3 sequence (G7TKC9 1-656 limits assumed): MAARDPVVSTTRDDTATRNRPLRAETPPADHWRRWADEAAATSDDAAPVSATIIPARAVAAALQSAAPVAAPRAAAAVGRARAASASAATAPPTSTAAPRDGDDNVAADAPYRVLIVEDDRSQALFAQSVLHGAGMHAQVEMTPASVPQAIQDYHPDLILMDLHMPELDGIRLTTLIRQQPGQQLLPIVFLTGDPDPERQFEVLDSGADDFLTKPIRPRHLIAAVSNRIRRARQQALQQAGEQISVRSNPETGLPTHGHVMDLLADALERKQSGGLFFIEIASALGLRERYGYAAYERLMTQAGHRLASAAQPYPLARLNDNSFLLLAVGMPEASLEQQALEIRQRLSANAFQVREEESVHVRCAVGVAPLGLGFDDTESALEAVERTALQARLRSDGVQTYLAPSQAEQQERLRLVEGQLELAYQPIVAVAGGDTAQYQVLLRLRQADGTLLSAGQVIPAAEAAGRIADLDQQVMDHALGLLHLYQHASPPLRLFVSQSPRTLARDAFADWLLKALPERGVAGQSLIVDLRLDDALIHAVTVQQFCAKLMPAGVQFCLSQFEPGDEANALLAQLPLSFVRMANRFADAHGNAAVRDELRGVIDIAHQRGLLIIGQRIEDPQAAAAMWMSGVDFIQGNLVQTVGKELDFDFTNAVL

As for `Nc1nc2c(ncn2[C@@H]2O[C@@H]3COP(=O)(O)O[C@H]4[C@@H](O)[C@H](n5cnc6c(=O)[nH]c(N)nc65)O[C@@H]4COP(=O)(O)O[C@H]3[C@H]2O)c(=O)[nH]1` [c-di-GMP], the Kd at XOC_4190ΔG amounted to 4.46 ± 0.28 µM; at (UniProt G7TDB2) it was 2.9 ± 0.13 µM; on (UniProt G7TKC9), 4.59 ± 0.36 µM.

As a reminder, the Kd is the free concentration of one partner at which half of the binding sites on the other are occupied at equilibrium, for simple one-to-one binding. Lower therefore signals a tighter complex.
